According to patent US12030904B2 (priority 2020, dated 2024):
Like-named read-outs stand apart in the source and are kept apart here.

How the values were obtained:
[1] = tested on: Recombinant Respiratory Syncytial virus strain A2 containing the firefly luciferase reporter (RSV-Fluc); assay: microbe, parasite or virus in culture; format: cell-based; conditions: human respiratory syncytial virus, NHBE
[2] = tested on: SARS-CoV-2; assay: microbe, parasite or virus in culture; format: cell-based
[3] = MT4 cytotoxicity (CC50); conditions: human, MT4 cells
[4] = Severe acute respiratory syndrome coronavirus 2, read-out: SARS EC50
[5] = 72 h, read-out: RSV-Fluc EC50 (NHBE), NHBE cells, three days, Table 2

Structure (SMILES) | EC50 ([1]; read-out: RSV EC50, Table 4) | EC50 [2, 4] | CC50 ([3]; MT4 CC50, Table 4) | EC50 [1, 5] | EC50 ([1]; read-out: RSV EC50, Table 2a) | CC50 ([3]; MT4 CC50, Table 2a) | EC50 ([1]; 72 h, read-out: RSV-Fluc EC50 (NHBE), NHBE cells, three days, Table 1) | EC50 ([2]; Severe acute respiratory syndrome coronavirus 2, 48 h, read-out: SARS-CoV-2 EC50) | CC50 ([3]; MT4 CC50, Table 1a)
CCCCCCCCCCCCCCCCCCOC[C@H](COP(=O)(O)OC[C@H]1O[C@@](C#N)(c2ccc3c(N)ncnn23)[C@H](O)[C@@H]1O)OCc1ccc2ccccc2n1 [Example 92, ((2R,3S,4R,5R)-5-(4-aminopyrrolo[2,1-f][1,2,4]triazin-7-yl)-5-cyano-3,4-dihydroxytetrahydrofuran-2-yl)methyl ((R)-3-(octadecyloxy)-2-(quinolin-2-ylmethoxy)propyl) hydrogen phosphate] | 38 nM | 120 nM | 1760 nM |  |  |  |  |  | 
CCCCCCCCCCCCCCCCCCOC[C@H](COP(=O)(O)OC[C@H]1O[C@@](C#N)(c2ccc3c(N)ncnn23)[C@H](O)[C@@H]1O)OCc1ccc(Cl)c(Cl)c1 [Example 48, ((2R,3S,4R,5R)-5-(4-aminopyrrolo[2,1-f][1,2,4]triazin-7-yl)-5-cyano-3,4-dihydroxytetrahydrofuran-2-yl)methyl ((R)-2-((3,4-dichlorobenzyl)oxy)-3-(octadecyloxy)propyl) hydrogen phosphate] |  | 10000 nM |  | 78 nM | 78 nM | 1610 nM |  |  | 
CCCCCCCCCCCCCCCCCOCCCCOP(=O)(O)OC[C@H]1O[C@@](C#N)(c2ccc3c(N)ncnn23)[C@H](O)[C@@H]1O [Example 121, [(2R,3S,4R,5R)-5-(4-Aminopyrrolo[2,1-f][1,2,4]triazin-7-yl)-5-cyano-3,4-dihydroxy-tetrahydrofuran-2-yl]methyl 4-heptadecoxybutyl hydrogen phosphate] | 262 nM | 8900 nM | 10400 nM |  |  |  |  |  | 
CCCCCCCCCCCCCCCCCCOC[C@H](COP(=O)(O)OC[C@H]1O[C@@](C#N)(c2ccc3c(N)ncnn23)[C@H](O)[C@@H]1O)OCc1ccc(C#N)nc1 [Example 116, [(2R,3S,4R,5R)-5-(4-aminopyrrolo[2,1-f][1,2,4]triazin-7-yl)-5-cyano-3,4-dihydroxy-tetrahydrofuran-2-yl]methyl [(2R)-2-[(6-cyano-3-pyridyl)methoxy]-3-octadecoxy-propyl] hydrogen phosphate] | 26 nM | 170 nM | 690 nM |  |  |  |  |  | 
CCCCCCCCCCCCCCCCCCOC[C@H](COP(=O)(O)OC[C@H]1O[C@@](C#N)(c2ccc3c(N)ncnn23)[C@H](O)[C@@H]1O)OCc1ccc(Cl)cc1Cl [Example 62, ((2R,3S,4R,5R)-5-(4-aminopyrrolo[2,1-f][1,2,4]triazin-7-yl)-5-cyano-3,4-dihydroxytetrahydrofuran-2-yl)methyl ((R)-2-((2,4-dichlorobenzyl)oxy)-3-(octadecyloxy)propyl) hydrogen phosphate] |  | 8620 nM |  | 220 nM | 217 nM | 12600 nM |  |  | 
CCCCCCCC/C=C\CCCCCCCCOC[C@H](COP(=O)(O)OC[C@H]1O[C@@](C#N)(c2ccc3c(N)ncnn23)[C@H](O)[C@@H]1O)OCc1ccc(C#N)cc1F [Example 129, ((2R,3S,4R,5R)-5-(4-aminopyrrolo[2,1-f][1,2,4]triazin-7-yl)-5-cyano-3,4-dihydroxytetrahydrofuran-2-yl)methyl ((R)-2-((4-cyano-2-fluorobenzyl)oxy)-3-(((Z)-octadec-9-en-1-yl)oxy)propyl) hydrogen phosphate] | 22 nM | 110 nM | 2430 nM |  |  |  |  |  | 
CC(C)CCCCCCCCCCCCCCOC[C@H](COP(=O)(O)OC[C@H]1O[C@@](C#N)(c2ccc3c(N)ncnn23)[C@H](O)[C@@H]1O)OCc1ccccc1 [Example 24, ((2R,3S,4R,5R)-5-(4-aminopyrrolo[2,1-f][1,2,4]triazin-7-yl)-5-cyano-3,4-dihydroxytetrahydrofuran-2-yl)methyl ((R)-2-(benzyloxy)-3-((15-methylhexadecyl)oxy)propyl) hydrogen phosphate] |  | 3320 nM |  | 42 nM | 42 nM | 2200 nM |  |  | 
CCCCCCCC/C=C/CCCCCCCCOC[C@H](COP(=O)(O)OC[C@H]1O[C@@](C#N)(c2ccc3c(N)ncnn23)[C@H](O)[C@@H]1O)OCc1cc(F)cc(C#N)c1 [Example 126, ((2R,3S,4R,5R)-5-(4-aminopyrrolo[2,1-f][1,2,4]triazin-7-yl)-5-cyano-3,4-dihydroxytetrahydrofuran-2-yl)methyl ((R)-2-((3-cyano-5-fluorobenzyl)oxy)-3-(((E)-octadec-9-en-1-yl)oxy)propyl) hydrogen phosphate] | 30 nM | 140 nM | 366 nM |  |  |  |  |  | 
CCCCCCCCCCCCCCCCCCOC[C@H](COP(=O)(O)OC[C@H]1O[C@@](C#N)(c2ccc3c(N)ncnn23)[C@H](O)[C@@H]1O)n1cc(C#N)nn1 [Example 81, ((2R,3S,4R,5R)-5-(4-aminopyrrolo[2,1-f][1,2,4]triazin-7-yl)-5-cyano-3,4-dihydroxytetrahydrofuran-2-yl)methyl ((R)-2-(4-cyano-1H-1,2,3-triazol-1-yl)-3-(octadecyloxy)propyl) hydrogen phosphate] | 68 nM | 1900 nM | 31100 nM |  |  |  |  |  | 
CCCCCCCCCCCCCCOC[C@H](COP(=O)(O)OC[C@H]1O[C@@](C#N)(c2ccc3c(N)ncnn23)[C@H](O)[C@@H]1O)OCc1ccc(C#N)cc1F [Example 101, [(2R,3S,4R,5R)-5-(4-aminopyrrolo[2,1-f][1,2,4]triazin-7-yl)-5-cyano-3,4-dihydroxy-tetrahydrofuran-2-yl]methyl [(2R)-2-[(4-cyano-2-fluoro-phenyl)methoxy]-3-tetradecoxy-propyl] hydrogen phosphate] | 20 nM | 130 nM | 5110 nM |  |  |  |  |  | 
CCCCCCCCCCCCCCCCCCOC[C@H](COP(=O)(O)OC[C@H]1O[C@@](C#N)(c2ccc3c(N)ncnn23)[C@H](O)[C@@H]1O)OCc1ccc(F)c(Cl)c1 [Example 17] |  |  |  |  |  |  | 20 nM | 690 nM | 2100 nM
CCCCCCCCCCCCCCCCCCOC[C@@H](CCc1ccccc1)COP(=O)(O)OC[C@H]1O[C@@](C#N)(c2ccc3c(N)ncnn23)[C@H](O)[C@@H]1O [Example 22, ((2R,3S,4R,5R)-5-(4-aminopyrrolo[2,1-f][1,2,4]triazin-7-yl)-5-cyano-3,4-dihydroxytetrahydrofuran-2-yl)methyl ((R)-2-((octadecyloxy)methyl)-4-phenylbutyl) hydrogen phosphate] |  | 5220 nM |  | 160 nM | 158 nM | 26400 nM |  |  | 
CCCCCCCCCCCCCCCCCCOC[C@H](COP(=O)(O)OC[C@H]1O[C@@](C#N)(c2ccc3c(N)ncnn23)[C@H](O)[C@@H]1O)OCc1ccc(Cl)cc1 [Example 41, ((2R,3S,4R,5R)-5-(4-aminopyrrolo[2,1-f][1,2,4]triazin-7-yl)-5-cyano-3,4-dihydroxytetrahydrofuran-2-yl)methyl ((R)-2-((4-chlorobenzyl)oxy)-3-(octadecyloxy)propyl) hydrogen phosphate] |  | 174 nM |  | 52 nM | 52 nM | 2410 nM |  |  | 
CCCCCCCCCCCCCCCCCCOC[C@H](COP(=O)(O)OC[C@H]1O[C@@](C#N)(c2ccc3c(N)ncnn23)[C@H](O)[C@@H]1O)OCc1ccc(C#N)cc1OC [Example 114, [(2R,3S,4R,5R)-5-(4-Aminopyrrolo[2,1-f][1,2,4]triazin-7-yl)-5-cyano-3,4-dihydroxy-tetrahydrofuran-2-yl]methyl [(2R)-2-[(4-cyano-2-methoxy-phenyl)methoxy]-3-octadecoxy-propyl] hydrogen phosphate] | 93 nM | 480 nM | 1880 nM |  |  |  |  |  | 
